According to PMC6440567 (Clinical and Translational Science, 2018):

How the values were obtained:
[1] = tested on: ceftazidime‐resistant Enterobacteriaceae; settings: cited from earlier work
[2] = tested on: OAT3; settings: in vitro; cited from earlier work
[3] = tested on: organic anion transporter 1 (OAT1); settings: in vitro; cited from earlier work
[4] = taken to be; ref not given; cited from earlier work
[5] = Final avibactam PopPK model; assay type: in vivo, human; settings: for clearance: human, plasma, intravenous
[6] = tested on: ceftazidime‐resistant P. aeruginosa; settings: thigh and lung infection; cited from earlier work
[7] = Individual predicted steady‐state exposures; assay type: in vivo, human; settings: for AUC / Cmax: human, plasma; for AUC: AUCss,0–24 geometric mean (CV)
[8] = non‐Chinese, non‐Japanese Asians vs other racial origins

For NC(=O)[C@@H]1CC[C@@H]2CN1C(=O)N2OS(=O)(=O)O [Avibactam, avibactam], the “C T that restored the activity of ceftazidime” value ([1]; avibactam concentration fixed, varying concentrations of ceftazidime) is listed as ≤ 0.5 mg/L, the “C T sufficient to restore ceftazidime activity” value ([1]; fixed concentrations of ceftazidime, varying concentrations of avibactam) is listed as 0.15 to 0.28 mg/L and the transporter substrate [2] is listed as “substrate”. For the same compound, the transporter substrate [3] was “substrate”, the “free plasma concentrations as % of total plasma concentrations” value [4] was 92% and the “lower V c” value ([5]; 10th percentile of body weight (51 kg) vs median weight (70 kg)) was 29%. For the same compound, the “higher V c” value ([5]; 90th percentile of body weight (95 kg) vs median weight (70 kg)) was 39%, the “decrease in CL” value ([5]; APACHE II score > 10) was 19.7% and the “increase in CL for an increase of 100 mL/min in CrCL over 80 mL/min” value ([5]; CrCL ≥ 80 mL/min) was 27.9%. For the same compound, the clearance ([5]; CL, patients with ESRD, off dialysis) was 1.13 mL/min, the clearance ([5]; CL, patients with ESRD, on‐dialysis) was 347 mL/min and the clearance ([5]; θ1: CL, typical value) was 170 mL/min. For the same compound, the clearance ([5]; θ6: CL estimate for patients on dialysis) was 347 mL/min, the “θ9: Population effect on V c (cIAI, phase II), V c*(1 + θ9)” value ([5]; in vivo) was 1.92 and the “θ11: Population effect on V c (cUTI), V c*(1 + θ11)” value ([5]; in vivo) was 0.434. For the same compound, the “θ12: Population effect on V c (cIAI, phase III, NP), V c*(1 + θ11)” value ([5]; in vivo) was 0.329, the “θ14: WT on V c (WT/70.0)^θ14” value ([5]; in vivo) was 1.08 and the “θ 28: NPv on V c,V c*(1 + θ28)” value ([5]; in vivo) was 0.175. For the same compound, the “increase in AUC” value [5, 8] was 9.5%, the “lower CL” value [5, 8] was 8.65% and the “higher V c” value ([5]; patients with NPv vs non‐NPv patients) was 17.5%. The “higher V c” value ([5]; patients with cUTI vs healthy subjects) was 43.4%, the “higher V c” value ([5]; phase III patients with cIAI and patients with NP vs healthy subjects) was 32.9% and the “θ2: V c” value ([5]; typical value) was 11.1 L. The “θ3: Q” value ([5]; typical value) was 5.44 L/h, the “θ4: V p” value ([5]; typical value) was 6.91 L and the “%fT > 1 mg/L associated with 2log10 reductions in bacterial density” value [6] was 20–55%. The “%fT > 1 mg/L associated with stasis” value [6] was 16–24%, the AUC ([7]; Age (years) 18–65) was 131 µg·h/mL and the AUC ([7]; Age (years) > 65–75) was 156 µg·h/mL. It also gave an AUC ([7]; Age (years) > 75–89) of 180 µg·h/mL, an AUC ([7]; Asian population: China (only)) of 153 µg·h/mL and an AUC ([7]; Asian population: Japan) of 164 µg·h/mL. It also gave an AUC ([7]; Baseline WBC count Missing) of 147 µg·h/mL, an AUC ([7]; Concomitant use of OAT1/OAT3 inhibitor(s): No) of 142 µg·h/mL and an AUC ([7]; Concomitant use of OAT1/OAT3 inhibitor(s): Yes) of 150 µg·h/mL. For the same compound, the AUC ([7]; Fever at baseline: Missing) was 132 µg·h/mL, the AUC ([7]; Fever at baseline: No) was 146 µg·h/mL and the AUC ([7]; Fever at baseline: Yes) was 134 µg·h/mL. It also gave an AUC ([7]; Obesity I (29.9 ≤ BMI < 34.9 kg/m^2)) of 136 µg·h/mL, an AUC ([7]; Obesity II (34.9 ≤ BMI < 39.9 kg/m^2)) of 141 µg·h/mL and an AUC ([7]; Obesity III (BMI ≥ 39.9 kg/m^2)) of 115 µg·h/mL. It also gave an AUC ([7]; Obesity: Missing) of 172 µg·h/mL, an AUC ([7]; Obesity: Normal) of 144 µg·h/mL and an AUC ([7]; Race: Asian (non‐Chinese; non‐Japanese)) of 166 µg·h/mL. The AUC ([7]; Race: Chinese and Taiwanese) was 151 µg·h/mL, the AUC ([7]; Race: Japanese) was 164 µg·h/mL and the AUC ([7]; Race: White/other) was 135 µg·h/mL. For the same compound, the Cmax ([7]; C max,ss geometric mean (CV), Age (years) 18–65) was 12500 ng/mL, the Cmax ([7]; C max,ss geometric mean (CV), Age (years) > 65–75) was 13200 ng/mL and the Cmax ([7]; C max,ss geometric mean (CV), Age (years) > 75–89) was 14000 ng/mL. It also gave a Cmax ([7]; C max,ss geometric mean (CV), Asian population: China (only)) of 14900 ng/mL, a Cmax ([7]; C max,ss geometric mean (CV), Asian population: Japan) of 16100 ng/mL and a Cmax ([7]; C max,ss geometric mean (CV), Asian population: Korea) of 13000 ng/mL. It also gave a Cmax ([7]; C max,ss geometric mean (CV), Concomitant use of OAT1/OAT3 inhibitor(s): No) of 12800 ng/mL, a Cmax ([7]; C max,ss geometric mean (CV), Concomitant use of OAT1/OAT3 inhibitor(s): Yes) of 13700 ng/mL and a Cmax ([7]; C max,ss geometric mean (CV), Fever at baseline: Missing) of 11800 ng/mL. The Cmax ([7]; C max,ss geometric mean (CV), Fever at baseline: No) was 12900 ng/mL, the Cmax ([7]; C max,ss geometric mean (CV), Fever at baseline: Yes) was 12200 ng/mL and the Cmax ([7]; C max,ss geometric mean (CV), Obesity I (29.9 ≤ BMI < 34.9 kg/m^2)) was 12000 ng/mL. For the same compound, the Cmax ([7]; C max,ss geometric mean (CV), Obesity II (34.9 ≤ BMI < 39.9 kg/m^2)) was 13200 ng/mL, the Cmax ([7]; C max,ss geometric mean (CV), Obesity III (BMI ≥ 39.9 kg/m^2)) was 9700 ng/mL and the Cmax ([7]; C max,ss geometric mean (CV), Obesity: Missing) was 14200 ng/mL. The Cmax ([7]; C max,ss geometric mean (CV), Obesity: Normal) was 13000 ng/mL, the Cmax ([7]; C max,ss geometric mean (CV), Race: Asian (non‐Chinese; non‐Japanese)) was 14900 ng/mL and the Cmax ([7]; C max,ss geometric mean (CV), Race: Chinese and Taiwanese) was 14700 ng/mL. The Cmax ([7]; C max,ss geometric mean (CV), Race: Japanese) was 16100 ng/mL, the Cmax ([7]; C max,ss geometric mean (CV), Race: White/other) was 12000 ng/mL and the Cmax ([7]; intravenous) was 12700 ng/mL. The AUC ([7]; intravenous, 187.5 mg, Day 3 CrCL 8–15 mL/min (750‐187.5 mg q24 h)) was 86.3 µg·h/mL, the Cmax ([7]; intravenous, 187.5 mg, C max,ss geometric mean (CV), Day 3 CrCL 8–15 mL/min (750‐187.5 mg q24 h)) was 6300 ng/mL and the AUC ([7]; intravenous, 500 mg, Day 3 CrCL > 150–180 mL/min (2000‐500 mg q8 h)) was 103 µg·h/mL. It also gave a Cmax ([7]; intravenous, 500 mg, C max,ss geometric mean (CV), Day 3 CrCL > 150–180 mL/min (2000‐500 mg q8 h)) of 9900 ng/mL, an AUC ([7]; intravenous, Asian population: Korea) of 144 µg·h/mL and an AUC ([7]; intravenous, Asian population: Taiwan) of 115 µg·h/mL. The AUC ([7]; intravenous, Asian population: Vietnam) was 146 µg·h/mL, the AUC ([7]; intravenous, Bacteremia at baseline: No) was 141 µg·h/mL and the AUC ([7]; intravenous, Bacteremia at baseline: Yes) was 161 µg·h/mL. It also gave an AUC ([7]; intravenous, Baseline APACHE II score > 10) of 170 µg·h/mL, an AUC ([7]; intravenous, Baseline APACHE II score Missing) of 138 µg·h/mL and an AUC ([7]; intravenous, Baseline APACHE II score ≤ 10) of 131 µg·h/mL. It also gave an AUC ([7]; intravenous, Baseline WBC count (cells/μL) > 12,000) of 136 µg·h/mL, an AUC ([7]; intravenous, Baseline WBC count (cells/μL) ≤ 12,000) of 145 µg·h/mL and an AUC ([7]; intravenous, Patient population: NP) of 169 µg·h/mL. It also gave an AUC ([7]; intravenous, Patient population: Non‐VAP) of 183 µg·h/mL, an AUC ([7]; intravenous, Patient population: VAP) of 146 µg·h/mL and an AUC ([7]; intravenous, Patient population: cIAI) of 132 µg·h/mL. For the same compound, the AUC ([7]; intravenous, Patient population: cUTI) was 138 µg·h/mL, the AUC ([7]; intravenous, SIRS at baseline: Missing) was 129 µg·h/mL and the AUC ([7]; intravenous, SIRS at baseline: No) was 143 µg·h/mL. The AUC ([7]; intravenous, SIRS at baseline: Yes) was 142 µg·h/mL, the Cmax ([7]; intravenous, C max,ss geometric mean (CV), Asian population: Taiwan) was 10200 ng/mL and the Cmax ([7]; intravenous, C max,ss geometric mean (CV), Asian population: Vietnam) was 14600 ng/mL. For the same compound, the Cmax ([7]; intravenous, C max,ss geometric mean (CV), Bacteremia at baseline: No) was 12600 ng/mL, the Cmax ([7]; intravenous, C max,ss geometric mean (CV), Bacteremia at baseline: Yes) was 14200 ng/mL and the Cmax ([7]; intravenous, C max,ss geometric mean (CV), Baseline APACHE II score > 10) was 14300 ng/mL. For the same compound, the Cmax ([7]; intravenous, C max,ss geometric mean (CV), Baseline APACHE II score Missing) was 12100 ng/mL, the Cmax ([7]; intravenous, C max,ss geometric mean (CV), Baseline WBC count (cells/μL) > 12,000) was 12500 ng/mL and the Cmax ([7]; intravenous, C max,ss geometric mean (CV), Baseline WBC count (cells/μL) ≤ 12,000) was 12800 ng/mL. The Cmax ([7]; intravenous, C max,ss geometric mean (CV), Patient population: NP) was 14200 ng/mL, the Cmax ([7]; intravenous, C max,ss geometric mean (CV), Patient population: Non‐VAP) was 15500 ng/mL and the Cmax ([7]; intravenous, C max,ss geometric mean (CV), Patient population: VAP) was 12000 ng/mL. For the same compound, the Cmax ([7]; intravenous, C max,ss geometric mean (CV), Patient population: cIAI) was 12800 ng/mL, the Cmax ([7]; intravenous, C max,ss geometric mean (CV), Patient population: cUTI) was 12100 ng/mL and the Cmax ([7]; intravenous, C max,ss geometric mean (CV), SIRS at baseline: Missing) was 12100 ng/mL. For the same compound, the Cmax ([7]; intravenous, C max,ss geometric mean (CV), SIRS at baseline: No) was 12800 ng/mL, the Cmax ([7]; intravenous, C max,ss geometric mean (CV), SIRS at baseline: Yes) was 12600 ng/mL and the “difference in steady‐state exposure vs. healthy volunteers” value ([7]; most patient subgroups) was ≤ 20%. The “lower C max,ss” value ([7]; patients with VAP vs non‐VAP patients) was ~ 20%.
